Results reported in PMC11421016, “Biotransformation and Epithelial Toxicity of Prenylated Phenolics from Licorice Roots (Glycyrrhiza spp.) in 3D Apical-Out Mucus-Producing Human Enteroids” (Journal of Agricultural and Food Chemistry, 2024).
Read-outs that look alike come from different tables or passages of the source.

Columns and labels:
[1] = system: human ileal apical-out enteroids; assay: Cytotoxicity by LDH leakage assay in apical-out enteroids; assay type: cell-based; details: human
Description: (§1) Cytotoxicity and effects on cell viability after exposure to glab, licoA, and glycy in apical-out and apical-in enteroids (6.25–500 μg mL^–1) and proliferating Caco-2 cells (3.13–100 μg mL^–1) were determined by LDH leakage (Section 2.6.1) and WST-1 assays (Section 2.6.2), respectively. For this, stock solutions of 50 mg mL^–1 of glab, licoA, and glycy in DMSO were used. […] An overview of the experimental conditions for the exposure experiments with glab, licoA, and glycy is shown in Table S2 (Supporting Information). In brief, apical-out and apical-in enteroids were grown for 7–10 days in OGM (∼200 enteroids per dome), after which the medium was changed to ODM (supplemented with 5 μM DAPT) to initiate enteroid differentiation. To generate apical-out enteroids, MG was removed from apical-in enteroids in OGM at day 7–10, as described in Section 2.3, and suspended in supplemented ODM. After 3 days in ODM, the effects on cytotoxicity and cell viability of glab, licoA, and glycy in apical-out and apical-in enteroids (passages between 3 and 17) were assessed after 4 and 24 h of incubation. For apical-out enteroids in a suspension, enteroids were pelleted by centrifugation (2 min, 200g, RT), after which the ODM was removed and 500 μL of the experimental agent was added. […] Caco-2 cells were grown for 48 h after seeding before experiments (passages 14–19) with proliferating cells and for 21 days after seeding (passages 14–33) with differentiated cells.[17] The medium (DMEM supplemented with FCS) was changed every 2 days. For exposure experiments, Caco-2 cells were incubated with glab, licoA, and glycy in DMEM without FCS, as FCS serves as an exogenous source of LDH.[22]
(§2) Cytotoxic effects of glab, licoA, and glycy were assessed by measuring leakage of intracellular lactate dehydrogenase (LDH) in the supernatant and analyzed using an LDH cytotoxicity detection kit (Roche Applied Science, Almere, The Netherlands), according to the manufacturer’s instructions. The LDH activity in the supernatant was expressed as the percentage of the maximum releasable LDH in enteroids or Caco-2 cells (enteroids or Caco-2 cells treated with 1% (v/v) Triton X-100) and calculated with eq 1. [drawing 1] 1 in which exp. value is the UV absorbance at 492 nm (Tecan Spark or Tecan Infinite 200 Pro, Tecan Group Ltd., Zürich, Switzerland), background control is the medium with corresponding concentration of glab, licoA, or glycy, and high control is the maximum releasable LDH in enteroids or Caco-2 cells. For enteroids, each well was used as its own positive control by taking the total releasable LDH of each well after incubation.

[2] = Cell viability by WST-1 assay in apical-out enteroids; assay type: cell-based, human; details: human
Description: as §1
(§3) Effects on cell viability after stimulation by glab, licoA, and glycy were assessed by measuring cleavage of the tetrazolium salt WST-1 to formazan catalyzed by cellular mitochondrial dehydrogenases and analyzed using a WST-1 cell viability kit (PromoKine, Heidelberg, Germany), according to the manufacturer’s instructions. Cell viability was expressed as the percentage of the control cells (enteroids or Caco-2 cells grown in a medium) and was calculated with eq 2. [drawing 2] 2 in which exp. value is the UV absorbance at 450 nm (Tecan Spark or Tecan Infinite 200 Pro) and low control is the spontaneous cleavage of WST-1 to formazan by mitochondrial dehydrogenases in untreated enteroids or Caco-2 cells.

[3] = system: human ileal apical-in enteroids; assay: Cytotoxicity by LDH leakage assay in apical-in enteroids; assay type: cell-based; details: 4 h, cutoff 25% vs negative control
Description: as §1, §2

[4] = system: human ileal apical-in enteroids; assay: Cell viability by WST-1 assay in apical-in enteroids; assay type: cell-based; details: 4 h
Description: Cytotoxicity and effects on cell viability after exposure to glab, licoA, and glycy in apical-out and apical-in enteroids (6.25–500 μg mL^–1) and proliferating Caco-2 cells (3.13–100 μg mL^–1) were determined by LDH leakage (Section 2.6.1) and WST-1 assays (Section 2.6.2), respectively. For this, stock solutions of 50 mg mL^–1 of glab, licoA, and glycy in DMSO were used. […] An overview of the experimental conditions for the exposure experiments with glab, licoA, and glycy is shown in Table S2 (Supporting Information). […] After 3 days in ODM, the effects on cytotoxicity and cell viability of glab, licoA, and glycy in apical-out and apical-in enteroids (passages between 3 and 17) were assessed after 4 and 24 h of incubation. […]
as §3, with “[drawing 2] 2 in which exp. value is the UV absorbance at 450 nm (Tecan Spark or Tecan Infinite 200 Pro) and low control is the spontaneous cleavage of WST-1 to formazan by mitochondrial dehydrogenases in untreated enteroids or Caco-2 cells.” left out
For apical-in enteroids, the cleavage of WST-1 to formazan was assessed in the MG. […]

Caco-2 cells = assay: Cytotoxicity by LDH leakage assay in Caco-2 cells; assay type: cell-based, human; details: proliferating and differentiated Caco-2 cells (differentiated: ref 17), cutoff 25%
Description: The human colon adenocarcinoma cell line (Caco-2) was obtained from the American Type Culture Collection (ATCC; Manassas, VA, USA). Caco-2 cells were cultured in DMEM, in a humidified atmosphere of 5% CO2 at 37 °C until 80–90% confluency was reached. Effects on the cytotoxicity and cell viability (Section 2.6) were assessed in proliferating and differentiated Caco-2 cells. The effects on differentiated Caco-2 cells were recently described in our publication.[17] Proliferating and differentiated Caco-2 cells were seeded into 96-well plates at a density of 15,000 cells per cm^2.
Cytotoxicity and effects on cell viability after exposure to glab, licoA, and glycy in apical-out and apical-in enteroids (6.25–500 μg mL^–1) and proliferating Caco-2 cells (3.13–100 μg mL^–1) were determined by LDH leakage (Section 2.6.1) and WST-1 assays (Section 2.6.2), respectively. For this, stock solutions of 50 mg mL^–1 of glab, licoA, and glycy in DMSO were used. […] After 3 days in ODM, the effects on cytotoxicity and cell viability of glab, licoA, and glycy in apical-out and apical-in enteroids (passages between 3 and 17) were assessed after 4 and 24 h of incubation. […]
as §2, with “[drawing 1]” left out, “For enteroids, each well was used as its own positive control by taking the total releasable LDH of each well after incubation.” left out

[5] = system: human ileal apical-out enteroids; details: 12.5 μg mL^–1 (34–39 μM), 4 h exposure
Description: Effects on barrier integrity of apical-out enteroids after glab, licoA, and glycy exposure were evaluated with a dextran diffusion assay, adapted from Co et al.[14] […] Enteroids were allowed to settle by gravity (5 min) into a pellet, the FITC-dextran 4 kDa was aspirated, and enteroids were washed with DMEM/F12 (3 min, 250g, RT). Enteroids were suspended in fresh DMEM/F12, and they were imaged with an EVOS FL Auto 2 cell imaging system. Images were analyzed using ImageJ software (version 1.52).

[6] = system: human apical-out ileal enteroids; assay: Biotransformation in apical-out ileal enteroids (RP-UHPLC-PDA-MSn); assay type: in vitro ADME; details: for glucuronide concentration released at the apical side: glycy 265 μM at t = 0 h
Description: (§4) Biotransformation of glab, licoA, and glycy in apical-out and apical-in enteroids was evaluated after 0, 4, and 24 h of incubation. For this, apical-out enteroids were stimulated with 50 μg mL^–1 (154 μM) glab, or with 100 μg mL^–1 licoA (296 μM), or 100 μg mL^–1 glycy (272 μM), and apical-in enteroids were stimulated with 50 μg mL^–1 glab (154 μM), 50 μg mL^–1 licoA (148 μM), or 50 μg mL^–1 glycy (136 μM). […] For apical-out enteroids, parent compounds and their transformation products were assessed on the enteroids’ apical (facing the medium) and basolateral side (inside the enteroids) and intracellularly. In apical-in enteroids, parent compounds and metabolites were assessed on the basolateral side (facing the medium). For the apical release, apical-out enteroids were pelleted (250g, 3 min, 4 °C), and the supernatant was used for LC-MS analysis, after which the enteroids were washed with PBS. Enteroids in a suspension in fresh PBS were broken up by vigorously pipetting up and down approximately for 20 times, after which enteroids were pelleted and the supernatant was used to determine basolateral release by using LC-MS. Enteroids were washed with PBS, and the enteroids’ cells in fresh PBS were disrupted on ice with a digital sonifier (Branson Ultrasonics Corporation, Danbury, CT, USA) with the following settings: a 5 s pulse, a 10 s pause, an amplitude of 55%, and 12 cycles. Enteroids were pelleted, and the supernatant was used as a measure for intracellular release and measured with LC-MS.
(§5) Samples were separated on a Thermo Vanquish UHPLC system (Thermo Scientific, San Jose, CA, USA) equipped with a pump, a degasser, an autosampler, and a PDA detector, as described elsewhere.[15] Eluents used were (A) LC-MS-grade MQ + 0.1% FA (v/v) and (B) LC-MS-grade ACN + 0.1% FA (v/v). The elution program was started by running isocratically at 1% B for 1.09 min followed by a 1.09–26.16 min linear gradient to 70% B, a 26.16–27.25 min linear gradient to 100% B, and 27.25–32.70 min isocratically at 100% B. The eluent was adjusted to start conditions in 1.09 min followed by equilibration of 5.45 min.
(§6) Mass spectrometric data were acquired using an LTQ Velos Pro linear ion trap mass spectrometer (Thermo Scientific), equipped with a heated ESI probe coupled in-line to the Vanquish UHPLC system, as described elsewhere.[15] Data were processed using Xcalibur 4.1 (Thermo Scientific).
(§7) Quantification of glab, licoA, glycy, and produced metabolites was based on UV absorbance at 280 nm (glab), 340–390 nm (licoA), and 320–370 nm (glycy). For this, a seven-point calibration (0.01–150 μg mL^–1) curve based on external standards of glab, licoA, and glycy (R^2 > 0.999) was used. UV peaks were integrated using the AVALON integration algorithm with the autocalc function (Xcalibur 4.1). Metabolites were quantified as glab, licoA, or glycy equivalents.

[7] = system: human apical-in ileal enteroids; assay: Biotransformation in apical-in ileal enteroids (RP-UHPLC-PDA-MSn); assay type: in vitro ADME
Description: as §4, §5, §6, §7

[8] = Stability in the medium without enteroids; assay type: physicochemical; details: after 24 h of incubation
Description: as §7

Gram-positive bacteria = system: Gram-positive bacteria; parameters: method as in PMID 36377761; details: against Gram-positive bacteria, cited from earlier work
[9] = system: mouse jejunal apical-out enteroids; parameters: method as in PMID 38086658; details: jejunum, cutoff 25%; cited from earlier work
[10] = system: mouse jejunal apical-in enteroids; parameters: method as in PMID 38086658; details: jejunum, cutoff 25%; cited from earlier work
[11] = system: mouse jejunal apical-out enteroids; parameters: method as in PMID 38086658; details: jejunum, cutoff 25%; cited from earlier work; remark: listed apart in the source
[12] = system: human CYP enzymes (i.e., CYP3A4); parameters: method as in PMID 17220245, PMID 28774812, PMID 12019199, PMID 26100226; details: cited from earlier work

CC1(C)C=Cc2c(ccc3c2OC[C@@H](c2ccc(O)cc2O)C3)O1 [glabridin]
fold higher concentration for significant cytotoxicity in apical-out vs apical-in enteroids [1]: 3-5 fold
viability at 4 h, 500 μg mL^–1 [2]: 21 ± 14%
viability at 4 h, 771 µM [2]: 29%
highest nontoxic concentration (LDH) ([3]; listed as Glabridin): 100 μg mL^–1
highest nontoxic concentration (LDH) ([3]; listed as glab): around 300 μM
highest nonreducing viability concentration (WST-1) [4]: 100 μg mL^–1
highest nontoxic concentration (LDH) (Caco-2 cells): around 75 μM
epithelial barrier (membrane) integrity [5]: did not seem to disrupt
sulfation (LC-MS analysis) ([6]; human ileal apical-out and apical-in enteroids): did not reveal sulfation
biotransformation products formed ([6]; released on the apical side): glucuronide metabolites
phase I biotransformation products ([6]; up to 24 h incubation): No phase I biotransformation products
biotransformation products formed ([7]; identified at the basolateral side): transformed to their glucuronides
phase I metabolites ([7]; up to 24 h incubation): no phase I metabolites were identified
recovery in the medium (without enteroids) [8]: 101 ± 2.2%
minimum inhibitory concentration (MIC) (Gram-positive bacteria): 12.5 μg mL^–1
minimum inhibitory concentration (MIC) (Gram-positive bacteria; equivalent of 12.5 μg mL^–1): 39 µM
highest noncytotoxic concentration [9]: 250 μg mL^–1
highest noncytotoxic concentration [10]: 75 μg mL^–1
highest nonreducing viability concentration [11]: 50 μg mL^–1
inhibition of human CYP enzymes (i.e., CYP3A4) [12]: inhibition

glycycoumarin-glucuronide [glycy-glucuronide]
glucuronide concentration released at the apical side ([6]; after 4 h): ~3 µM
glucuronide concentration released at the apical side ([6]; after 24 h): ~16 µM
